Experimental data taken from patent US20220057378A1, “MICROBIAL MICROFLUIDIC BIOSENSOR” (priority 2015, published 2022).

How the values were obtained:
GFP sensor strains = test: SVM classification of GFP sensor responses (toxin / no toxin); assay type: cell-based; details: from classification accuracy and ROC curves
Description: Computational models to determine the threshold of detection for specific sensors based on models of experimental GFP responses. We used machine learning techniques to determine the relationships between the GFP output signal and the presence of a toxin. We have created a database containing the collected sensor response data. We have quantified the GFP threshold of detection for each sensor construct. We have constructed Receiver Operating Characteristic (ROC) curves for each sensor to achieve robust sensing. We constructed machine learning models capable of inferring the relationships between the GFP sensor responses and the presence or absence of a toxin at a given concentration. The algorithm learns these relationships from a set of training samples (GFP sensor responses) defined by the set of experimental conditions from which they were generated. The aim of the algorithm is to provide a general method capable of determining the experimental conditions associated with GFP sensor responses through the use of historical data. Specifically, we have built classification models based on Support Vector Machines (SVMs), which is one of the most popular classifiers due to its excellent performance in many contexts and its solid mathematical basis (1). For each toxin and concentration, we solved a binary classification problem in which the positive class represents the presence of the toxin in water and the negative class is associated with clean environments. Patterns were constructed with features containing GFP sensor responses at various timestamps to capture the temporal dynamics of the GFP signal. The optimal meta-parameters of the SVM classifier were determined by applying a 5-crossvalidation during the training phase (2). In order to have a reliable estimate of the performance of the model when deployed in real environments, we measured its performance over a set of samples (test patterns) not seen during the training phase. The SVM's performance was determined by the percentage of test samples correctly labeled as toxin/no toxin (classification accuracy). 80% of samples were used for training the SVM models and the remaining 20% of samples was used to evaluate their effectiveness. We generated 20 random training/test partitions to have an estimate of performance independent of the data partition.
Specifically, we have built classification models based on Support Vector Machines (SVMs), which is one of the most popular classifiers due to its excellent performance in many contexts and its solid mathematical basis. For each toxin and concentration, we solved a binary classification problem in which the positive class represents the presence of the toxin in water and the negative class is associated with clean environments. Patterns were constructed with features containing GFP sensor responses at various timestamps to capture the temporal dynamics of the GFP signal. The optimal meta-parameters of the SVM classifier were determined by applying a 5-crossvalidation during the training phase.
In order to have a reliable estimate of the performance of the model when deployed in real environments, we measured its performance over a set of samples (test patterns) not seen during the training phase. The SVM's performance was determined by the percentage of test samples correctly labeled as toxin/no toxin (classification accuracy). 80% of samples were used for training the SVM models and the remaining 20% of samples was used to evaluate their effectiveness. We generated 20 random training/test partitions based on data collected in single-strain chips (no crosstalk data) to have an estimate of performance.

E. coli MG1655/Pb7 = test: 8-strain chip induction (fluorescence induction ratio); assay type: cell-based; details: toxin at t=0, pure water at t=2 hours; arsenic 0.2, cadmium 0.05, chromium(VI) 0.5, copper 5, lead 1.8 μM
Description: (§1) An overview of the sensor can be seen in FIG. 39. In order to acquire the large amount of data required to successfully train the classifier, five replicates of the fully self-contained device prototype were built, in which the microfluidic devices are mounted and imaged using custom-designed optics as shown in some embodiments herein (Milestone 6.9). The majority of the data for this project was acquired using a novel microfluidic device capable of housing eight different bacterial strains that receive media from a shared source. […] The design was expanded to house 18 strains and we have begun taking data with this new chip to provide larger datasets to the classifier. A detailed CAD drawing of this device can be seen in FIG. 56. The 18 cell trapping regions are vacuum-loaded from 18 downstream fluidic ports. Long, serpentine channels upstream of the trapping regions serve as fluidic buffer zones to prevent the cross-contamination of strains while loading. The toxin concentration is controlled dynamically by a peristaltic pump that mixes a water/toxin combination (representing the source water stream) with a concentrated medium stock.
(§2) In each panel, the time series data for the “on-target” responding strain is plotted in bold.

E. coli MG1655/As1 = test: on-chip time-lapse induction of promoter construct (GFP, gill chip); assay type: cell-based
Method: (§7) For on-chip induction experiments, strains were loaded into the device and grown in M9 minimal medium with 0.4% glucose and 50 μg/ml spectinomycin (for plasmid maintenance) for 2 days in the absence of toxin. Cells were imaged under 4× brightfield and GFP fluorescence filters on an Olympus IX-81 microscope every 2 min for 6 h under these non-inducing conditions to generate a fluorescence baseline. The toxin was then introduced to induce GFP expression and the cells were imaged every 2 min for 6 h.
(§8) To determine the response to toxin induction, the raw fluorescence images before and after induction were compared. The image stacks were analyzed using a custom ImageJ script to measure the average GFP signal over time for each cell trap. Any linear trend in the uninduced fluorescence data due to cell growth was subtracted from the data. In this manner, the dynamic signal-to-noise ratio (SNR) was calculated as: (current fluorescence−mean uninduced fluorescence)/(standard deviation of uninduced fluorescence).
(§9) This microfluidic platform was then used to measure the response of several toxin responsive promoter constructs identified from the literature and synthesized by Transcriptic. […] Note that SNR values greater than 2 indicate a significant response.

As7 GFP construct = test: arsenic detection with the GFP construct in a microfluidic device; assay type: cell-based
Method: (§3) For comparison, the arsenic concentration used for testing the GFP construct in a microfluidic device was 130 nM, or 0.13 μM. Thus, replacing GFP with Lux promises to greatly increase the sensitivity of the biosensor.
(§4) The arsenic sensor construct As7 was modified to replace the gfp gene with the luxCDABE operon, and relative induction (fluorescence or luminescence) of the two constructs was tested side-by-side using a Tecan Infinite M200 Pro plate reader (see FIG. 38). […] In contrast, the GFP construct was sensitive to arsenic only above a concentration of 26 nM. For comparison, we were able to detect an arsenic concentration of 130 nM using the GFP construct in a microfluidic device. Thus, replacing GFP with Lux promises to greatly increase the sensitivity of the biosensor.

pZA47a = test: SVM classification of GFP sensor responses (toxin / no toxin); assay type: cell-based, E. coli; details: from classification accuracy and ROC curves
Description: (§5) Computational models to determine the threshold of detection for specific sensors based on models of experimental GFP responses. We used machine learning techniques to determine the relationships between the GFP output signal and the presence of a toxin. We have created a database containing the collected sensor response data. We have quantified the GFP threshold of detection for each sensor construct. We have constructed Receiver Operating Characteristic (ROC) curves for each sensor to achieve robust sensing. We constructed machine learning models capable of inferring the relationships between the GFP sensor responses and the presence or absence of a toxin at a given concentration. […] The optimal meta-parameters of the SVM classifier were determined by applying a 5-crossvalidation during the training phase (2). In order to have a reliable estimate of the performance of the model when deployed in real environments, we measured its performance over a set of samples (test patterns) not seen during the training phase. The SVM's performance was determined by the percentage of test samples correctly labeled as toxin/no toxin (classification accuracy). […]
(§6) In order to have a reliable estimate of the performance of the model when deployed in real environments, we measured its performance over a set of samples (test patterns) not seen during the training phase. […]

pRS18 = test: as above; assay type: cell-based, E. coli; details: from classification accuracy and ROC curves; plasmid pRS18
Description: as §5, §6

As7 with luxCDABE operon = test: plate reader induction of arsenic sensor, Lux reporter; assay type: cell-based; details: Tecan plate reader
Method: Luminescent reporters. […] In FIG. 8, we compare these reporters driven by an arsenic-responsive promoter, where the induction response was measured side-by-side using a Tecan plate reader.
as §3, §4

E. coli MG1655/Cu1 [1] = test: on-chip time-lapse induction of promoter construct (GFP, gill chip); assay type: cell-based
Method: as §7, §8, §9

E. coli MG1655/Cu1 [2] = test: 8-strain chip induction (fluorescence induction ratio); assay type: cell-based; details: toxin at t=0, pure water at t=2 hours; copper 5, lead 1.8 μM
Description: as §1, §2

E. coli MG1655/Hg3 [3] = test: as above; assay type: cell-based; details: toxin at t=0, pure water at t=2 hours; cadmium 0.05, mercury 0.2 μM
Description: as §1, §2

E. coli MG1655/Cd1 = test: as above; assay type: cell-based; details: toxin at t=0, pure water at t=2 hours; cadmium 0.05, lead 1.8 μM
Description: as §1, §2

E. coli MG1655/Hg3 [4] = test system: E. coli MG1655/Hg3
Method: as §7, §8, §9

[Cr+6] [Chromium(VI)]
threshold of detection (GFP sensor strains): 1.25 µM | GFP response of strain Pb7 (E. coli MG1655/Pb7): equal magnitude but more rapid response

[As] [Arsenic]
SNR after 6 h (E. coli MG1655/As1; 0.13 μM arsenic, 6 h induction, SNR > 2 = significant response): 20 | Concentration Sensed in Microfluidic Device (E. coli MG1655/As1; arsR/parsR from E. coli plasmid, native RBS): 0.13 µM | arsenic concentration detected, GFP construct in microfluidic device (As7 GFP construct): 130 nM | threshold of detection (pZA47a): 0.1 µM | threshold of detection (pRS18): 0.2 µM | arsenic concentration detected, Lux construct (As7 with luxCDABE operon): 0.2 nM | GFP response of strain Pb7 (E. coli MG1655/Pb7): smaller response

[Cu] [Copper]
SNR after 6 h (E. coli MG1655/Cu1 [1]; 25 μM copper, 6 h induction, SNR > 2 = significant response): 65 | Concentration Sensed in Microfluidic Device (E. coli MG1655/Cu1 [1]; cueR/pcopA from E. coli genome, native RBS): 25 µM | threshold of detection (GFP sensor strains): 5 µM | GFP response of strain Cu1 (E. coli MG1655/Cu1 [2]): sensitively responding | GFP response of strain Pb7 (E. coli MG1655/Pb7): smaller response

[Cd] [Cadmium]
threshold of detection (GFP sensor strains): 0.44 µM | GFP response of strain Pb7 (E. coli MG1655/Pb7): much larger response | GFP response of strain Hg3 (E. coli MG1655/Hg3 [3]): responding | GFP response of strain Cd1 (E. coli MG1655/Cd1): responding

Mercury
SNR after 6 h (E. coli MG1655/Hg3 [4]; 0.1 μM mercury, 6 h induction, SNR > 2 = significant response): 20 | Concentration Sensed in Microfluidic Device (E. coli MG1655/Hg3 [4]; merR/pmerR from E. coli plasmid, synthetic RBS): 0.1 µM | threshold of detection (GFP sensor strains): 1 µM | GFP response of strain Hg3 (E. coli MG1655/Hg3 [3]): sensitively responding

[Pb] [Lead]
threshold of detection (GFP sensor strains): 1.8 µM | GFP response of strain Cu1 (E. coli MG1655/Cu1 [2]): responding at lesser magnitudes | GFP response of strain Pb7 (E. coli MG1655/Pb7): responding | GFP response of strain Cd1 (E. coli MG1655/Cd1): responding at lesser magnitudes
